Laboratory results reported in ChEMBL document CHEMBL3596111, “Synthesis and evaluation of the anti-nociceptive and anti-inflammatory activity of 4-aminoquinoline derivatives” (Bioorg Med Chem, 2015).
Activity calls are given as the source filed them. The calls are words filed in the database; no cut-off is given here.

Tests used:
Mus musculus [1] = test: Anti-inflammatory activity in Swiss mouse assessed as inhibition of zymosan-induced peritonitis by measuring reduction in leukocyte migration at 10 umol/kg, ip administered 30 min before the zymosan injection; assay type: functional
Mus musculus [2] = test: Anti-nociceptive activity in Swiss mouse assessed as reduction in paw licking response during inflammatory phase at 10 umol/kg, ip dosed 40 mins before formalin injection; assay type: functional
Rattus norvegicus [3] = test: Anti-inflammatory activity in Wistar rat model complete Freund's adjuvant-induced arthritis assessed as reduction in paw edema at 5 umol/kg, ip dosed from day 14 to day 21 after immunization and measured on day 16; assay type: functional, organism-based
Mus musculus [4] = test: Anti-nociceptive activity in Swiss mouse assessed as reduction in time spent in licking injected paw during neurogenic phase at 100 umol/kg, ip dosed 40 mins before formalin injection; assay type: functional, organism-based
Mus musculus [5] = test: Anti-nociceptive activity in ip dosed Swiss mouse assessed as inhibition of acetic acid-induced writhing dosed 40 mins before acetic acid injection and measured over 25 mins; assay type: functional; settings: read-out: ID50 (the source's name)
Mus musculus [6] = test: Anti-nociceptive activity in Swiss mouse assessed as reduction in time spent in licking injected paw during inflammatory phase at 100 umol/kg, ip dosed 40 mins before formalin injection; assay type: functional, organism-based
Mus musculus [7] = test: Anti-nociceptive activity in ip dosed Swiss mouse assessed as inhibition of acetic acid-induced writhing dosed 40 mins before acetic acid injection and measured over 25 mins relative to control; assay type: functional
Rattus norvegicus [8] = test: Anti-inflammatory activity in Wistar rat model complete Freund's adjuvant-induced arthritis assessed as reduction in paw edema at 100 umol/kg, ip dosed from day 14 to day 21 after immunization and measured on until day of sacrifice; assay type: functional, organism-based
Rattus norvegicus [9] = test: Renal toxicity in Wistar rat model complete Freund's adjuvant-induced arthritis assessed as effect on urea levels at 100 umol/kg, ip dosed from day 14 to day 21 after immunization; assay type: organism-based; settings: in vivo
Rattus norvegicus [10] = test: Toxicity in Wistar rat model complete Freund's adjuvant-induced arthritis assessed as effect on spleen weight at 100 umol/kg, ip dosed from day 14 to day 21 after immunization; assay type: organism-based; settings: in vivo
Rattus norvegicus [11] = test: Hepatotoxicity in Wistar rat model complete Freund's adjuvant-induced arthritis assessed as effect on serum AST level at 100 umol/kg, ip dosed from day 14 to day 21 after immunization; assay type: toxicity, organism-based; settings: in vivo
Rattus norvegicus [12] = test: Hepatotoxicity in Wistar rat model complete Freund's adjuvant-induced arthritis assessed as effect on serum ALT level at 100 umol/kg, ip dosed from day 14 to day 21 after immunization; assay type: toxicity, organism-based; settings: in vivo
Rattus norvegicus [13] = test: Renal toxicity in Wistar rat model complete Freund's adjuvant-induced arthritis assessed as effect on creatinine levels at 100 umol/kg, ip dosed from day 14 to day 21 after immunization; assay type: organism-based; settings: in vivo
Mus musculus [14] = test: Anti-nociceptive activity in Swiss mouse assessed as reduction in paw licking response during inflammatory phase at 100 umol/kg, ip dosed 40 mins before formalin injection; assay type: functional
Mus musculus [15] = test: Anti-inflammatory activity in Swiss mouse assessed as inhibition of zymosan-induced peritonitis by measuring reduction in leukocyte migration at 100 umol/kg, ip administered 30 min before the zymosan injection; assay type: functional
Rattus norvegicus [16] = test: Anti-inflammatory activity in Wistar rat model complete Freund's adjuvant-induced arthritis assessed as reduction in paw edema at 100 umol/kg, ip dosed from day 14 to day 21 after immunization and measured on day 17; assay type: functional, organism-based

Structure (SMILES) | Activity (Mus musculus [4]) | ED50 (Mus musculus [5]) | Activity (Mus musculus [6]) | Emax (Mus musculus [7]) | also measured
COc1ccc2c(c1)c(CC(=O)O)c(C)n2C(=O)c1ccc(Cl)cc1 [INDOMETHACIN] | – | – | – | – | inhibition in vivo at 10 µmol/kg (Mus musculus [1]): 75.8%; inhibition in vivo at 10 µmol/kg (Mus musculus [2]): 50.8%
C[C@@H]1C[C@H]2[C@@H]3CCC4=CC(=O)C=C[C@]4(C)[C@@]3(F)[C@@H](O)C[C@]2(C)[C@@]1(O)C(=O)CO | – | – | – | – | Activity (Rattus norvegicus [3]): Active
NCCNCCNc1ccnc2cc(Cl)ccc12 | Active | 39.4 µmol/kg | Active | 86.4% | –
NCCNCCNc1ccnc2cc(C(F)(F)F)ccc12 | Active | 15.3 µmol/kg | Active | 96.7% | Activity (Rattus norvegicus [8]): Active; Activity (Rattus norvegicus [9]): Non-toxic; Activity (Rattus norvegicus [10]): Non-toxic; Activity (Rattus norvegicus [11]): Non-toxic; Activity (Rattus norvegicus [12]): Non-toxic; Activity (Rattus norvegicus [13]): Non-toxic; inhibition in vivo at 100 µmol/kg (Mus musculus [14]): 89.6%; inhibition in vivo at 100 µmol/kg (Mus musculus [15]): 59.1%; Activity (Rattus norvegicus [16]): Active
NCCNCCNc1cc(C(F)(F)F)nc2ccccc12 | Active | 26.6 µmol/kg | Active | 95.1% | –
Cc1c(N(C)CS(=O)(=O)O)c(=O)n(-c2ccccc2)n1C [METAMIZOLE] | – | 36.8 µmol/kg | – | 74.8% | –
